Experimental data from patent publication US6139538A, “Iontophoretic agent delivery to the female reproductive tract” (Iotek, Inc., priority 1997, dated 2000).
Values joined by “and” are separate entries in the source; they are usually repeats but may differ in a detail not shown here. Identical values can stand only once. Like-named read-outs stand apart in the source and are kept apart here.

Conditions: 20 minutes
[1] = Experiment #1, active (A1, A2, A3): 4% lidocaine solution, 1 mA
[2] = Experiment #1, passive (P1, P2, P3): 4% lidocaine solution, no current
[3] = Experiment #2, active (A1, A2, A3): 4% lidocaine solution, 1 mA

## CCN(CC)CC(=O)Nc1c(C)cccc1C [lidocaine]
[1]
  Total μg in tissue: 604.6 µg and 600.2 µg and 494.6 µg
  μg/mL of lidocaine: 120.9 µg/mL and 120.0 µg/mL and 98.9 µg/mL
[2]
  Total μg in tissue: 131.8 µg and 95.5 µg and 172.1 µg
  μg/mL of lidocaine: 26.4 µg/mL and 19.1 µg/mL and 34.4 µg/mL
[3]
  Total μg/g in tissue: 702.3 µg/g and 808.2 µg/g and 781.1 µg/g
  μg/mL of lidocaine: 140.5 µg/mL and 161.6 µg/mL and 156.2 µg/mL
